In patent US20230416203A1, “POTENT AND SELECTIVE INHIBITORS OF THE CALCIUM-ACTIVATED POTASSIUM CHANNEL, KCA3.1, FOR USE AS PLATFORM THERAPEUTICS” (priority 2020, published 2023):

Test: Two-week non-GLP toxicology in mice (clinical signs, body weight, body weight gain, food consumption, hematology, clinical chemistry, organ weights, histopathology)
Conditions: for Organ weights relative to body weight (%), Adrenals / Organ weights relative to body weight (%), Brain / Organ weights relative to body weight (%), Heart / Organ weights relative to body weight (%), Kidneys / Organ weights relative to body weight (%), Liver / Organ weights relative to body weight (%), Ovaries / Organ weights relative to body weight (%), Spleen / Organ weights relative to body weight (%), Thymus / Organ weights relative to body weight (%), U / ALB / ALT / AST / BUN / Basophils / CREA / Eosinophils / GLU / HCT / HGB / LDLC / Lympthocytes / MCH / MCHC / MCV / Monocytes / Neutrophils / PLT / RBC / Reticuloxyte Count / TBIL / TGL / TP / Urea / WBC / Body weight gain (%) / ALP / Lymphocytes / Monosytes / Organ weights relative to body weight (%), Epididy / Organ weights relative to body weight (%), Testes / Organ weights relative to body weight (%), Thy: mean
[1] = 25 and 50 mg/kg BID, 2 weeks, mice
[2] = G2 25 mg/kg/BID oral, Treatment Day 1
[3] = G2 25 mg/kg/BID oral, Treatment Day 4
[4] = G2 25 mg/kg/BID oral, Treatment Day 8
[5] = G2 25 mg/kg/BID oral, Treatment Day 11
[6] = G2 25 mg/kg/BID oral, Treatment Day 14
[7] = G3 50 mg/kg/BID oral, Treatment Day 1
[8] = G3 50 mg/kg/BID oral, Treatment Day 4
[9] = G3 50 mg/kg/BID oral, Treatment Day 8
[10] = G3 50 mg/kg/BID oral, Treatment Day 11
[11] = G3 50 mg/kg/BID oral, Treatment Day 14
[12] = female mice, 25 mg/kg ROD oral, 2 weeks
[13] = female mice, 25 mg/kg/BID oral, 2 weeks
[14] = female mice, 25 mg/kg/BID oral, treatment day 1 to 4
[15] = female mice, 25 mg/kg/BID oral, treatment day 1 to 8
[16] = female mice, 25 mg/kg/BID oral, treatment day 1 to 11
[17] = female mice, 25 mg/kg/BID oral, treatment day 1 to 14
[18] = female mice, 50 mg/kg/BID oral, 2 weeks
[19] = female mice, 50 mg/kg/BID oral, treatment day 1 to 4
[20] = female mice, 50 mg/kg/BID oral, treatment day 1 to 8
[21] = female mice, 50 mg/kg/BID oral, treatment day 1 to 11
[22] = female mice, 50 mg/kg/BID oral, treatment day 1 to 14
[23] = female mice, 50 mg/kg:BID oral, 2 weeks
[24] = male mice, 25 mg/kg/BID oral, 2 weeks
[25] = male mice, 25 mg/kg/BID oral, treatment day 1 to 4
[26] = male mice, 25 mg/kg/BID oral, treatment day 1 to 8
[27] = male mice, 25 mg/kg/BID oral, treatment day 1 to 11
[28] = male mice, 25 mg/kg/BID oral, treatment day 1 to 14
[29] = male mice, 50 mg/kg/BID oral, 2 weeks
[30] = male mice, 50 mg/kg/BID oral, treatment day 1 to 4
[31] = male mice, 50 mg/kg/BID oral, treatment day 1 to 8
[32] = male mice, 50 mg/kg/BID oral, treatment day 1 to 11
[33] = male mice, 50 mg/kg/BID oral, treatment day 1 to 14
[34] = oral, twice daily, 25 and 50 mg/kg, 2 weeks, mice

Procedure: Each group contained 6 mice. The animals were analyzed throughout the study, and blood and tissues were analyzed at the end of the study.

COC(=O)C1=CNC=C(C(=O)OC)C1c1ccc(F)c(C(F)(F)F)c1 [Compound 103, Dimethyl 4-(4-fluoro-3-(trifluoromethyl)phenyl)-1,4-dihydropyridine-3,5-dicarboxylate]
decrease in white blood cells (WBC) (25 mg/kg and 50 mg/kg treated male and female mice, statistically significant): up to 3.4 fold | Hematological assessment, other parameters [1]: No other toxicologically significant changes were detected | Histopathology analysis [1]: did not detect any differences with controls | Organ weights [1]: not altered | gross pathology [1]: no obvious gross pathology | Body weight of female mice, Mean [2]: 20.33 | Body weight of male mice, Mean [2]: 18.30 | Body weight of female mice, Mean [3]: 21.03 | Body weight of male mice, Mean [3]: 17.65 | Body weight of female mice, Mean [4]: 21.48 | Body weight of male mice, Mean [4]: 19.12 | Body weight of female mice, Mean [5]: 21.52 | Body weight of male mice, Mean [5]: 18.95 | Body weight of female mice, Mean [6]: 21.93 | Body weight of male mice, Mean [6]: 19.27 | Body weight of female mice, Mean [7]: 20.47 | Body weight of male mice, Mean [7]: 18.75 | Body weight of female mice, Mean [8]: 20.37 | Body weight of male mice, Mean [8]: 18.63 | Body weight of female mice, Mean [9]: 21.13 | Body weight of male mice, Mean [9]: 19.52 | Body weight of female mice, Mean [10]: 21.20 | Body weight of male mice, Mean [10]: 19.32 | Body weight of female mice, Mean [11]: 21.73 | Body weight of male mice, Mean [11]: 19.85 | Organ weights relative to body weight (%), Adrenals [12]: 0.038% | Organ weights relative to body weight (%), Brain [12]: 2.217% | Organ weights relative to body weight (%), Heart [12]: 0.990% | Organ weights relative to body weight (%), Kidneys [12]: 1.379% | Organ weights relative to body weight (%), Liver [12]: 6.436% | Organ weights relative to body weight (%), Ovaries [12]: 0.077% | Organ weights relative to body weight (%), Spleen [12]: 0.672*↑ % | Organ weights relative to body weight (%), Thymus [12]: 0.200% | Organ weights relative to body weight (%), U [12]: 0.321% | ALB [13]: 2.60*↓ g/dL | ALT [13]: 40.03 U/L | AST [13]: 84.12 U/L | BUN [13]: 19.24 mg/dL | Basophils [13]: 0.00 | CREA [13]: 0.13 mg/dL | Eosinophils [13]: 0.00 | GLU [13]: 153.02 mg/dL | HCT [13]: 28.87% | HGB [13]: 12.97 g/dL | LDLC [13]: 9.31 mg/dL | Lympthocytes [13]: 82.00 | MCH [13]: 21.10*↓ pg | MCHC [13]: 44.93*↓ g/dL | MCV [13]: 46.97*↑ fL | Monocytes [13]: 1.00 | Neutrophils [13]: 17.00 | PLT [13]: 616.67 10^3/μl | RBC [13]: 6.15 | Reticuloxyte Count [13]: 2.63 | TBIL [13]: 0.12 mg/dL | TGL [13]: 48.73 mg/dL | TP [13]: 4.12 g/dL | Urea [13]: 41.23 mg/dL | WBC [13]: 3.73*↓ 10^3/μl | Food consumption, Average Feed Intake/Animal [14]: 9.4 g/animal | Body weight gain (%) [14]: −3.53% | Food consumption, Average Feed Intake/Animal [15]: 12.8 g/animal | Body weight gain (%) [15]: 4.49% | Food consumption, Average Feed Intake/Animal [16]: 10.3 g/animal | Body weight gain (%) [16]: 3.54% | Food consumption, Average Feed Intake/Animal [17]: 9.5 g/animal | Body weight gain (%) [17]: 5.27% | ALB [18]: 2.55*↓ g/dL | ALP [18]: 254.38 U/L | ALT [18]: 55.57 U/L | AST [18]: 92.78 U/L | BUN [18]: 22.71 mg/dL | Basophils [18]: 0.00 | CREA [18]: 0.12 mg/dL | Eosinophils [18]: 0.00 | GLU [18]: 165.87 mg/dL | HCT [18]: 28.73% | HGB [18]: 13.67 g/dL | LDLC [18]: 8.23 mg/dL | Lympthocytes [18]: 84.00 | MCH [18]: 21.23 pg | MCHC [18]: 45.37*↓ g/dL | MCV [18]: 46.83*↑ fL | Monocytes [18]: 1.33 | Neutrophils [18]: 14.67 | PLT [18]: 733.00 10^3/μl | RBC [18]: 6.14 | Reticuloxyte Count [18]: 2.67 | TBIL [18]: 0.14 mg/dL | TGL [18]: 59.97 mg/dL | TP [18]: 3.89 g/dL | Urea [18]: 48.65 mg/dL | WBC [18]: 2.17*↓ 10^3/μl | Food consumption, Average Feed Intake/Animal [19]: 9.1 g/animal | Body weight gain (%) [19]: −0.68% | Food consumption, Average Feed Intake/Animal [20]: 12.8 g/animal | Body weight gain (%) [20]: 4.10% | Food consumption, Average Feed Intake/Animal [21]: 8.7 g/animal | Body weight gain (%) [21]: 3.03% | Food consumption, Average Feed Intake/Animal [22]: 9.8 g/animal | Body weight gain (%) [22]: 5.87% | Organ weights relative to body weight (%), Adrenals [23]: 0.035% | Organ weights relative to body weight (%), Brain [23]: 2.175% | Organ weights relative to body weight (%), Heart [23]: 0.532% | Organ weights relative to body weight (%), Kidneys [23]: 1.375% | Organ weights relative to body weight (%), Liver [23]: 7.356% | Organ weights relative to body weight (%), Ovaries [23]: 0.066% | Organ weights relative to body weight (%), Spleen [23]: 0.490% | Organ weights relative to body weight (%), Thymus [23]: 0.220% | Organ weights relative to body weight (%), U [23]: 0.277% | clinical chemistry assessment (male and female mice, 25 and 50 mg/kg BID, 2 weeks): no significant toxicological change | ALB [24]: 2.66 | ALP [24]: 207.96 | ALT [24]: 42.36 | AST [24]: 79.38 | BUN [24]: 19.73 | Basophils [24]: 0.00 | CREA [24]: 0.14 | Eosinophils [24]: 0.67 | GLU [24]: 157.88 mg/dL | HCT [24]: 31.43% | HGB [24]: 15.37 g/dL | LDLC [24]: 10.02 mg/dL | Lymphocytes [24]: 82.33 | MCH [24]: 23.27 pg | MCHC [24]: 48.87 g/dL | MCV [24]: 47.70 fL | Monosytes [24]: 1.33 | Neutrophils [24]: 15.67 | Organ weights relative to body weight (%), Adrenals [24]: 0.024% | Organ weights relative to body weight (%), Brain [24]: 2.065% | Organ weights relative to body weight (%), Epididy [24]: 0.333% | Organ weights relative to body weight (%), Heart [24]: 0.500% | Organ weights relative to body weight (%), Kidneys [24]: 1.490% | Organ weights relative to body weight (%), Liver [24]: 7.093% | Organ weights relative to body weight (%), Spleen [24]: 0.351% | Organ weights relative to body weight (%), Testes [24]: 0.582% | Organ weights relative to body weight (%), Thy [24]: 0.136% | PLT [24]: 591.33 10^3/μl | RBC [24]: 6.59 | Reticuloxyte Count [24]: 2.90 | TBIL [24]: 0.09*↓ mg/dL | TGL [24]: 73.46 mg/dL | TP [24]: 4.13*↑ g/dL | Urea [24]: 42.29 mg/dL | WBC [24]: 3.70*↓ 10^3/μl | Food consumption, Average Feed Intake/Animal [25]: 9.9 g/animal | Body weight gain (%) [25]: 3.45% | Food consumption, Average Feed Intake/Animal [26]: 14.8 g/animal | Body weight gain (%) [26]: 5.68% | Food consumption, Average Feed Intake/Animal [27]: 9.5 g/animal | Body weight gain (%) [27]: 5.86% | Food consumption, Average Feed Intake/Animal [28]: 10.4 g/animal | Body weight gain (%) [28]: 7.91% | ALB [29]: 2.43 | ALP [29]: 180.63 | ALT [29]: 59.72 | AST [29]: 88.76 | BUN [29]: 22.97 | Basophils [29]: 0.00 | CREA [29]: 0.12*↓ | Eosinophils [29]: 0.00 | GLU [29]: 152.77 mg/dL | HCT [29]: 30.70% | HGB [29]: 13.73 g/dL | LDLC [29]: 9.84 mg/dL | Lymphocytes [29]: 78.00 | MCH [29]: 21.70 pg | MCHC [29]: 44.77 g/dL | MCV [29]: 48.40*↑ fL | Monosytes [29]: 2.00 | Neutrophils [29]: 20.00 | Organ weights relative to body weight (%), Adrenals [29]: 0.030% | Organ weights relative to body weight (%), Brain [29]: 2.017% | Organ weights relative to body weight (%), Epididy [29]: 0.298% | Organ weights relative to body weight (%), Heart [29]: 0.541% | Organ weights relative to body weight (%), Kidneys [29]: 1.467% | Organ weights relative to body weight (%), Liver [29]: 7.014% | Organ weights relative to body weight (%), Spleen [29]: 0.461% | Organ weights relative to body weight (%), Testes [29]: 0.773% | Organ weights relative to body weight (%), Thy [29]: 0.116% | PLT [29]: 661.00 10^3/μl | RBC [29]: 6.34 | Reticuloxyte Count [29]: 2.67 | TBIL [29]: 0.08*↓ mg/dL | TGL [29]: 84.42 mg/dL | TP [29]: 4.19*↑ g/dL | Urea [29]: 47.30 mg/dL | WBC [29]: 2.27*↓ 10^3/μl | Food consumption, Average Feed Intake/Animal [30]: 8.7 g/animal | Body weight gain (%) [30]: −0.49*1% | Food consumption, Average Feed Intake/Animal [31]: 14.4 g/animal | Body weight gain (%) [31]: 3.28% | Food consumption, Average Feed Intake/Animal [32]: 9.4 g/animal | Body weight gain (%) [32]: 3.60% | Food consumption, Average Feed Intake/Animal [33]: 11.0 g/animal | Body weight gain (%) [33]: 6.21% | body weight and body weight gain [34]: did not change | clinical signs [34]: No abnormal clinical signs were detected | survival [34]: all animals survived to study termination | tolerable dose (twice daily for 14 consecutive days, oral, C57BL/6 mice): > 50 mg/kg/BID
